# ChEMBL document CHEMBL1909046, “DrugMatrix in vitro pharmacology data”
# What was measured:
# [1] = target: Beta-1 adrenergic receptor (Homo sapiens, UniProt P08588); test: DRUGMATRIX: Adrenergic beta1 radioligand binding (ligand: [125I] Cyanopindolol); format: cell membranes, CHO-K1, Membrane; details: cho-k1; Not Active = under 50% inhibition at 10 µM
# B2 bradykinin receptor = target: T1, B2 bradykinin receptor (Homo sapiens, UniProt P30411); format: cell membranes, Membrane; details: chem-1; also: in other assays of this panel Not Active means under 50% inhibition at 10 µM
# T1 sequence (P30411 whole entry): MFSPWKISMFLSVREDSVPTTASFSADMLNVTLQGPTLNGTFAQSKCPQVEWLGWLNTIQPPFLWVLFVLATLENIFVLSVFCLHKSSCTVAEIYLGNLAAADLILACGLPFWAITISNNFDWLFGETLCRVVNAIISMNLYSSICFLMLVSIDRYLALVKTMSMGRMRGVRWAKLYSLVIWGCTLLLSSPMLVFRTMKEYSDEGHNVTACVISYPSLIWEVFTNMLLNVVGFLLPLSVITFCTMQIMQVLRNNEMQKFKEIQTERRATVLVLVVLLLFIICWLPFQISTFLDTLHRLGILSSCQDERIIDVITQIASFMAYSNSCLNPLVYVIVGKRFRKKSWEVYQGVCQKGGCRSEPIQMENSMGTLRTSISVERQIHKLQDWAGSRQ
# D(4) dopamine receptor = target: T2, D(4) dopamine receptor (Homo sapiens, UniProt P21917); test: DRUGMATRIX: Dopamine D4.2 radioligand binding (ligand: [3H] Spiperone); format: cell membranes, CHO-K1, Membrane; details: Not Active = under 50% inhibition at 10 µM
# T2 sequence (P21917 whole entry): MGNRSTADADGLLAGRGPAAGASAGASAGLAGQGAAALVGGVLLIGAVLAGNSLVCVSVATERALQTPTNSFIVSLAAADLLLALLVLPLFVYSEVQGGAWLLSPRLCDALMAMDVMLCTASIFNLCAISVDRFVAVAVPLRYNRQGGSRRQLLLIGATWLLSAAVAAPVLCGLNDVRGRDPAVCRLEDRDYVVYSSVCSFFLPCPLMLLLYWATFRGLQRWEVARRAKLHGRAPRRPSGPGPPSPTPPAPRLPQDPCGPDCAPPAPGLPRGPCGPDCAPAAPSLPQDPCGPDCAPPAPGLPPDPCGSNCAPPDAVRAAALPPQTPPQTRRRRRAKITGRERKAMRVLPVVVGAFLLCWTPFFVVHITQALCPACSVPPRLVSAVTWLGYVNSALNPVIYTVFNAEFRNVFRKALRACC
# [2] = DRUGMATRIX: Imidazoline I2, Central radioligand binding (ligand: [3H] Idazoxan); format: cell membranes, Rattus norvegicus, Wistar, Cerebral cortex, Membrane; details: Not Active = under 50% inhibition at 10 µM
# [3] = target: T3, 5-hydroxytryptamine receptor 1A (Rattus norvegicus, UniProt P19327); format: cell membranes, CHO-K1, Membrane; also: in other assays of this panel Not Active means under 50% inhibition at 10 µM
# T3 sequence (P19327 whole entry): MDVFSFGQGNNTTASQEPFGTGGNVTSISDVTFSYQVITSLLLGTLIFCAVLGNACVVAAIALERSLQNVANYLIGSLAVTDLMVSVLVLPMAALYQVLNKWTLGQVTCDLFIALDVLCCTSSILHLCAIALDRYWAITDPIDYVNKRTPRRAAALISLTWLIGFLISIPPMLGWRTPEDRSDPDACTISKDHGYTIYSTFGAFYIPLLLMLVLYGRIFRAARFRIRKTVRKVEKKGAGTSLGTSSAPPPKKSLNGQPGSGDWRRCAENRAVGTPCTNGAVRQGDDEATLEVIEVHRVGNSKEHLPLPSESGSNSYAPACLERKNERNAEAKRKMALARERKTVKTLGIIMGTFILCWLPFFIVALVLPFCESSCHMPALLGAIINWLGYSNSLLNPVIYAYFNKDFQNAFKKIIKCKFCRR
# Estrogen receptor beta = Estrogen receptor beta (Homo sapiens, UniProt Q92731); details: sf9; also: in other assays of this panel Not Active means under 50% inhibition at 10 µM
# Glucocorticoid receptor = target: T4, Glucocorticoid receptor (Homo sapiens, UniProt P04150); details: hela s3; also: in other assays of this panel Not Active means under 50% inhibition at 10 µM
# T4 sequence (P04150 whole entry): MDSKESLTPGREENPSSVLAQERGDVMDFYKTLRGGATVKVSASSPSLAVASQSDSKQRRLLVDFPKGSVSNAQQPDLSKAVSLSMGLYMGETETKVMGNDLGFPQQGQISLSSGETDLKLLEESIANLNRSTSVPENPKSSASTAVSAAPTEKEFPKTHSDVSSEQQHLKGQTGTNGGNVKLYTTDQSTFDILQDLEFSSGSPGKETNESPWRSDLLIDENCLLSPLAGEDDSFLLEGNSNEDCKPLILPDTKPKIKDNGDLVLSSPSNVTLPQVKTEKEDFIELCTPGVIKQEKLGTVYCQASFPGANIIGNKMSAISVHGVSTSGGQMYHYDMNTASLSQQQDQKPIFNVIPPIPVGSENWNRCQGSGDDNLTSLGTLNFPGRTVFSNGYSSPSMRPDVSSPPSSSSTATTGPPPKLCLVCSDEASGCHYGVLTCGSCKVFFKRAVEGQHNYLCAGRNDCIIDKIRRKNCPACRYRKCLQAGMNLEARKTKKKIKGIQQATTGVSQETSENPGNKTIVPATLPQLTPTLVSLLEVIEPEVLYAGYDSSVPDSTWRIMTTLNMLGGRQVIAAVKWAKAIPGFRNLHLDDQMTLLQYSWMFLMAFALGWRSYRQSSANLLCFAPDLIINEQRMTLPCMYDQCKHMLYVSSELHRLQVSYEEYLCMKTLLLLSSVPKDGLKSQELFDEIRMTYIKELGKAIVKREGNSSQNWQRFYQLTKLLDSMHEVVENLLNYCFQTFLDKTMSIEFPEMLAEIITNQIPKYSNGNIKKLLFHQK
# Beta-1 adrenergic receptor, sequence (P08588 whole entry): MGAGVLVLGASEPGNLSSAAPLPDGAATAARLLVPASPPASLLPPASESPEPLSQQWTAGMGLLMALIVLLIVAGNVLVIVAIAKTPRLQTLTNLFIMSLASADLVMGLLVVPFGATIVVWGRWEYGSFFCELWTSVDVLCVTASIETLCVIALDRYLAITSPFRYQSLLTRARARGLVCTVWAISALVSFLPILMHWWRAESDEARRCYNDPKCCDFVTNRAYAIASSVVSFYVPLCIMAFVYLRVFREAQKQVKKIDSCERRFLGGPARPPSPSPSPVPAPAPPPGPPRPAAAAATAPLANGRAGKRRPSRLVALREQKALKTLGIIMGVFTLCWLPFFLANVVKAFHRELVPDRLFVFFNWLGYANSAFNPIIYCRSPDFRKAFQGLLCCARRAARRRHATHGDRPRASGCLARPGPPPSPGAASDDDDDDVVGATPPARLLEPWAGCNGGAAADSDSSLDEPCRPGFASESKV
# Estrogen receptor beta, sequence (Q92731 whole entry): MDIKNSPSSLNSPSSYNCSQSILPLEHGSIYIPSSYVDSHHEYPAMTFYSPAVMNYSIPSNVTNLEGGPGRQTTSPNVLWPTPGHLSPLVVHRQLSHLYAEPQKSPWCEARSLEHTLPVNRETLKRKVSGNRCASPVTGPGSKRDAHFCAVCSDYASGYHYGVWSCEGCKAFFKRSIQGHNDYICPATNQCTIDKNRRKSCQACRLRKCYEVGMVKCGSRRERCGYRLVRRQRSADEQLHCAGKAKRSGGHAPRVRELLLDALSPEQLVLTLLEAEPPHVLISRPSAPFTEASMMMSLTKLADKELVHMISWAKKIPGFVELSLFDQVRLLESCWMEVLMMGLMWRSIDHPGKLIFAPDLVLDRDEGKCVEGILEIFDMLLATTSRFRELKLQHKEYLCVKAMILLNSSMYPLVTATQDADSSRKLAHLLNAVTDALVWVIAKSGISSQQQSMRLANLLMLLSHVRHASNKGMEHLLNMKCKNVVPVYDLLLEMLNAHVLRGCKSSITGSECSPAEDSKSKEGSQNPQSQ
Molecule,IC50 [1],IC50 (B2 bradykinin receptor),IC50 (D(4) dopamine receptor; cho-k1),IC50 [2],Ki [2],IC50 ([3]; cho-k1),IC50 (Estrogen receptor beta),IC50 (Glucocorticoid receptor),IC50 ([3]; read-out: IC50) [nM],Ki ([3]; read-out: Ki) [nM],IC50 (D(4) dopamine receptor; read-out: IC50) [nM],Ki (D(4) dopamine receptor; read-out: Ki) [nM],IC50 ([2]; read-out: IC50) [nM],Ki ([2]; read-out: Ki) [nM],Ki [1],Ki (B2 bradykinin receptor),Ki (D(4) dopamine receptor; cho-k1),Ki ([3]; cho-k1),Ki (Estrogen receptor beta),Ki (Glucocorticoid receptor)
COc1cc(N)nc2[nH]c(-c3ccc(F)cc3)c(-c3ccncc3)c12,Not Active,Not Active,Not Active,Not Active,Not Active,Not Active,Not Active,Not Active,–,–,–,–,–,–,–,–,–,–,–,–
CNS(=O)(=O)Cc1ccc2[nH]cc(CCN(C)C)c2c1,Not Active,Not Active,Not Active,Not Active,Not Active,–,Not Active,Not Active,804,459,–,–,–,–,–,–,–,–,–,–
COc1ccc(/C=C/C(=O)Nc2ccccc2C(=O)O)cc1OC,Not Active,Not Active,Not Active,Not Active,Not Active,Not Active,Not Active,Not Active,–,–,–,–,–,–,–,–,–,–,–,–
OCCN1CCN(CCCN2c3ccccc3Sc3ccc(C(F)(F)F)cc32)CC1 [FLUPHENAZINE],Not Active,Not Active,–,–,–,–,Not Active,Not Active,1640,939,5880,2060,–,–,–,–,–,–,–,–
Nc1nc2c(c(=O)[nH]1)N(C=O)C(CNc1ccc(C(=O)N[C@@H](CCC(=O)O)C(=O)O)cc1)CN2 (stereo not given in full) [LEUCOVORIN],Not Active,Not Active,Not Active,Not Active,Not Active,Not Active,Not Active,Not Active,–,–,–,–,–,–,–,–,–,–,–,–
C[C@@H](O)[C@H]1C(=O)N2C(C(=O)O)=C(S[C@@H]3CN[C@H](C(=O)N(C)C)C3)[C@H](C)[C@H]12 [MEROPENEM],Not Active,Not Active,Not Active,Not Active,Not Active,Not Active,Not Active,Not Active,–,–,–,–,–,–,–,–,–,–,–,–
CCN(CC)CC#CCOC(=O)C(O)(c1ccccc1)C1CCCCC1 (stereo not given) [OXYBUTYNIN],Not Active,Not Active,Not Active,–,–,Not Active,Not Active,Not Active,–,–,–,–,–,–,–,–,–,–,–,–
C#CCN(C)[C@H](C)Cc1ccccc1 [SELEGILINE],Not Active,Not Active,Not Active,–,–,Not Active,Not Active,Not Active,–,–,–,–,1610,1080,–,–,–,–,–,–
C[C@@H]1C[C@H]2[C@@H]3CCC4=CC(=O)C=C[C@]4(C)C3=CC[C@]2(C)[C@H]1C(=O)CN1CCN(c2cc(N3CCCC3)nc(N3CCCC3)n2)CC1 [TIRILAZAD],Not Active,Not Active,Not Active,Not Active,Not Active,Not Active,Not Active,Not Active,–,–,–,–,–,–,–,–,–,–,–,–
COc1ccc(CN2CCNCC2)c(OC)c1OC [TRIMETAZIDINE],Not Active,Not Active,Not Active,Not Active,Not Active,Not Active,Not Active,Not Active,–,–,–,–,–,–,–,–,–,–,–,–
COc1cc(C(=O)NS(=O)(=O)c2ccccc2C)ccc1Cc1cn(C)c2ccc(NC(=O)OC3CCCC3)cc12 [ZAFIRLUKAST],Not Active,Not Active,Not Active,Not Active,Not Active,Not Active,Not Active,Not Active,–,–,–,–,–,–,–,–,–,–,–,–
STANNOUS FLUORIDE,Not Active,Not Active,Not Active,Not Active,Not Active,Not Active,Not Active,Not Active,–,–,–,–,–,–,Not Active,Not Active,Not Active,Not Active,Not Active,Not Active
THIMEROSAL,Not Active,Not Active,Not Active,Not Active,Not Active,Not Active,Not Active,Not Active,–,–,–,–,–,–,Not Active,Not Active,Not Active,Not Active,Not Active,Not Active
